# Measured values from US20050256302A1, “Novel peptides having camp producing activity” (Japan Science and Technology Agency, priority 2002, published 2005).
# Where a SMILES comes first, the peptide text is derived from it. Bridges are numbered along the chain shown (N, C = ends).
# Key:
# LLC-PK1 cells [1] = assay: Suppression of cell proliferation (125I-DU incorporation, cell count); assay type: cell-based, pig; conditions: 125I-DU incorporation and cell count
# Protocol: A solution of each peptide in DMEM in each concentration was added to LLC-PK1 cells, then DMEM (containing 0.1% BSA) which contained bromodeoxyuridine labeled with ^125I (^125I-DU) was added to each well and, after 5 hours, radioactivity incorporated into the nuclei was measured by a gamma-counter to measure the DNA amount synthesized as a result of cell proliferation.
# With regard to the number of proliferated cells, each solution of CRSP in DMEM in various concentrations was added to LLC-PK1 cells of 10,000 cells/well, incubation was conducted, the cells on the incubation dish was taken out by a trypsin-EDTA solution and cell numbers were counted using a counting plate.
# LLC-PK1 cells were incubated for two days in a DMEM (containing 10% of FCS) on a 24-well collagen plate, once washed with a DMEM and substituted with a DMEM (containing 10% of FCS) containing 0 and 10^−12 to 10^−6 M of CRSP followed by incubating. After 2 hours, a DMEM (containing 0.1% of BSA) containing ^125I-labeled bromodeoxyuridine was added to each well and, after 5 hours, radioactivity incorporated into the nuclei was measured by a gamma-counter whereupon the amount of DNA synthesized as a result of cell proliferation was measured.
# Similarly, LLC-PK1 cells of 10,000 cells/well were sown on a 24-well collagen plate and incubated with a DMEM (containing 10% of FCS) for 24 hours. […]
# [2] = target: T1, Pig calcitonin receptor (CTR) (Sus scrofa, UniProt P25117); assay: cAMP production in COS-7 cells expressing pig calcitonin receptor; assay type: cell-based
# T1 construct: expressed in transfected cells; host or cells: COS-7 (given as rhesus monkey renal cells), vector pcDNA 3.1
# T1 sequence (P25117 30-498): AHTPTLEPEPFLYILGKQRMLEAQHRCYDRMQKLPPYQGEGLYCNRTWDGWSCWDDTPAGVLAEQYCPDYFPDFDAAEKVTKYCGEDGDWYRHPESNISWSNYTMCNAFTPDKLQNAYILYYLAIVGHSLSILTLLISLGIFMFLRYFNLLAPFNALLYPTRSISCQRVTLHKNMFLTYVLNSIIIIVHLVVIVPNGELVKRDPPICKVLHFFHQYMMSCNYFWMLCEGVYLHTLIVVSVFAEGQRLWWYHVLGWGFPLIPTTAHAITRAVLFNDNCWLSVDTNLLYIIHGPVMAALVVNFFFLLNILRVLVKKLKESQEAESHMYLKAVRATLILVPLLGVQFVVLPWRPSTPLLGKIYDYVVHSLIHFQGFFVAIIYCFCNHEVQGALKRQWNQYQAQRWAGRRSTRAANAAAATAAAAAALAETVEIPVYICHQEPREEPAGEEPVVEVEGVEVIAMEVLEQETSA
# Protocol: Pig calcitonin receptor (CTR) was introduced into a mammalian expression vector pcDNA 3.1, expressed in rhesus monkey renal cells (COS-7) and production amount of cAMP by stimulation of CRSP was measured by radioimmunoassay. Similarly, CTR was expressed in opossum renal cells (OK cells) and production amount of cAMP by stimulation of CRSP was measured by radioimmunoassay while incorporation of sodium ion was measured by measuring the incorporation of sodium chloride having radioactivity (^22Na) by a gamma-counter.
# Pig calcitonin receptor (CTR) was introduced into mammalian expression vector pcDNA 3.1 and then expressed in rhesus monkey renal cells (COS-7) whereupon production amount of cAMP by CRSP stimulation was measured by radioimmunoassay.
# Pig calcitonin receptor (CTR) was introduced into a mammalian expression vector pcDNA 3.1 and expressed in rhesus monkey renal cells (COS-7) and production amount of cAMP by CRSP stimulation was measured by radioimmunoassay.
# Pig calcitonin receptor (CTR) was introduced into a mammalian expression vector pcDNA 3.1, then expressed in rhesus monkey renal cells (COS-7) and production amount of cAMP by CRSP or CRSP-Gly stimulation was measured-by radioimmunoassay.
# LLC-PK1 cells [3] = assay: cAMP production in LLC-PK1 cells (radioimmunoassay); assay type: cell-based, pig; conditions: ratio of ED50
# Protocol: CRSP dissolved in DMEM was added to a medium for LLC-PK1 cells and amount of cAMP secreted therefrom was quantified by means of radioimmunoassay using a cAMP-specific antibody.
# LLC-PK1 cells were incubated in a culture medium (a Dulbecco-modified Eagle medium (DMEM) containing 10% of fetal calf serum (FCS)), CRSP dissolved in DMEM containing 0.05% of bovine serum albumin was substituted for a culture medium for the cells after two days, incubation was conducted for 30 minutes, the medium was recovered and amount of the secreted cAMP was quantified by radioimmunoassay using a cAMP-specific antibody.
# LLC-PK1 cells [4] = assay: Incorporation of calcium ion (45Ca) in LLC-PK1 cells; assay type: cell-based, pig; conditions: 10 minutes
# Protocol: The results are shown in FIG. 5 (incorporation of sodium ion in the absence of EIPA), FIG. 6 (incorporation of sodium ion in the presence of EIPA) and FIG. 7 (incorporation of calcium ion).
# Incorporation of calcium ion was conducted as follows. Thus, LLC-PK1 cells were washed with a Hanks' solution (calcium-free Hanks' solution) where concentration of calcium chloride was lowered to 0 mM. Calcium chloride (^45Ca) was added to a calcium-free Hanks' solution on the cells together with CRSP, the cells were washed after 10 minutes to completely wash out ^45Ca contained in the solution outside the cells and radioactivity incorporated into the cells was measured by a liquid scintillation counter.
# [5] = Calcium concentration in plasma of anesthetized rats; assay type: in vivo; conditions: rat, 16 nmol/kg from jugular vein
# Protocol: CRSP corresponding to an amount of 16 nmol/kg dissolved in a physiological saline solution was administered at a time within a short period from jugular vein of rat under an anesthetized condition and calcium concentration in the plasma and blood pressure were measured. The results are shown in FIG. 13 (changes in calcium concentration in blood by administration of CRSP) and FIG. 14 (changes in blood pressure by administration of CRSP).
# CRSP corresponding to the amount of 16 nmol/kg dissolved in a physiological saline solution was administered at a time within short period from […] of rat under an anesthetized condition.
smiles,measurement,setting,value
CSCC[C@H](NC(=O)[C@H](CCCCN)NC(=O)[C@@H](NC(=O)[C@@H]1CCCN1C(=O)[C@H](CC(C)C)NC(=O)[C@H](CC(C)C)NC(=O)[C@H](CC(N)=O)NC(=O)[C@H](CO)NC(=O)[C@H](CCCNC(=N)N)NC(=O)[C@@H](NC(=O)[C@H](CCSC)NC(=O)[C@H](CO)NC(=O)CNC(=O)[C@H](CO)NC(=O)[C@H](CCCNC(=N)N)NC(=O)[C@H](CO)NC(=O)[C@H](CC(C)C)NC(=O)[C@H](CC(C)C)NC(=O)CNC(=O)[C@@H](NC(=O)[C@H](CC(C)C)NC(=O)[C@H](CCCNC(=N)N)NC(=O)[C@H](Cc1c[nH]cn1)NC(=O)[C@@H](NC(=O)[C@H](CCSC)NC(=O)[C@@H]1CSSC[C@H](NC(=O)[C@@H](N)CO)C(=O)N[C@@H](CC(N)=O)C(=O)N[C@@H]([C@@H](C)O)C(=O)N[C@@H](C)C(=O)N[C@@H]([C@@H](C)O)C(=O)N1)[C@@H](C)O)C(C)C)C(C)C)[C@@H](C)O)C(=O)NCC(=O)N[C@@H](Cc1ccccc1)C(=O)N[C@@H](CCCCN)C(=O)N[C@H](C(=O)N[C@@H](Cc1ccccc1)C(=O)NCC(N)=O)C(C)C [CRSP] (H-SCNTATCMTHRLVGLLSRSGSMVRSNLLPTKMGFKVFG-NH2; disulfide 2-7),growth of LLC-PK1 cells,LLC-PK1 cells [1],suppressing the growth of LLC-PK1 cells
same,"cAMP productivity, CRSP compared with CRSP-Gly",[2]; CTR expressed in COS-7,nearly the same cAMP productivity
same,activity stronger than pig calcitonin,"[2]; CTR expressed in COS-7, ratio of ED50",about 350 fold
same,EC50,"[2]; CTR expressed in COS-7, read-out: ED50, increase of intracellular adenylyl cyclase activity (cAMP production)",~0.2 nM
same,activity stronger than pig CGRP,LLC-PK1 cells [3],about 40 fold
same,activity stronger than pig calcitonin,LLC-PK1 cells [3],about 6 fold
same,incorporation of calcium into cells,LLC-PK1 cells [4],suppressed
same,calcium concentration in plasma,[5],transiently lowered
